In general, pIC50 refers to the negative decadic logarithm of the IC50, by convention in mol/L. A high value points to a low IC50.

pIC50: −log10 of the molar value.

Data set [1] is described as follows: In vitro metabolism in human hepatic microsomal fractions (HLM half-life). Type of data set: in vitro ADME. Conditions: human liver microsomes, initial substrate concentration 1 μM, 37° C. Here is the method:
In vitro metabolism experiments were carried out in the hepatic microsomal fractions from man. Transplant-quality human liver tissue was obtained from the International Institute for the Advancement of Medicine (Exton, Pa., USA). Microsomes were prepared according to the method described in Biochemical Pharmacology, […], 48, 2147-2156 and stored at −80° C. The concentrations of protein and cytochrome P450 were determined by standard methods described in Journal of Biological Chemistry, 1951, 193, 265-275 and Journal of Biological Chemistry, 1964, 239, 2370-2378.
Microsomal incubations (1.5 ml) were prepared containing 0.5 μM cytochrome P450, 200 mM phosphate buffer (pH 7.4), 0.1 M MgCl2, 0.1 M isocitric acid, 1 unit/ml isocitrate dehydrogenase and 20 mM β-NADP. […] The extracts were evaporated to dryness and analysed by LC-MS/MS (Hewlett Packard HP1100 binary pump, Hypersil HS100 C18, 5 cm by 4.6 mm internal diameter, 5 μm column using a mobile phase of 2 mM ammonium acetate in 90:10 methanol/water, aqueous portion adjusted to pH 4 with glacial acetic acid, and a flowrate of 1 ml/min). […] Disappearance rate constants (k) in human microsomal preparations were determined by linear regression of the log ratio (compound under study/internal standard) versus time. The in vitro human microsomal half-lives were determined according to the equation t1/2=In 2/k. […]
Background: Liver microsomes are a subcellular fraction often used to study metabolism.

Data set [2] concerns the target T1, cGMP PDE5 (human corp. cav.) (Homo sapiens, UniProt O76074).
T1 construct: from tissue; host or cells: human corpus cavernosum
Briefly: Phosphodiesterase (PDE) inhibitory activity, cGMP PDE5. The class given is biochemical. Conditions: enzyme from human corpus cavernosum. Here is the method: Compounds of the present invention are potent and selective cGMP PDE5 inhibitors. In vitro PDE inhibitory activities against cyclic guanosine 3′,5′-monophosphate (cGMP) and cyclic adenosine 3′,5′-monophosphate (cAMP) phosphodiesterases were determined by measurement of their IC50 values (the concentration of compound required for 50% inhibition of enzyme activity).
The required PDE enzymes were isolated from a variety of sources, including human corpus cavernosum, human platelets, human cardiac ventricle, human skeletal muscle and human and canine retina, essentially by the method of W. J. Thompson and M. M. Appleman (Biochem., 1971, 10, 311). […]
Assays were performed either using a modification of the “batch” method of W. J. Thompson et al. (Biochem., 1979, 18, 5228) or using a scintillation proximity assay for the direct detection of AMP/GMP using a modification of the protocol described by Amersham plc under product code TRKQ7090/7100. […] Plates were re-sealed and shaken for 20 min, after which the beads were allowed to settle for 30 min in the dark and then counted on a TopCount plate reader (Packard, Meriden, Conn.). Radioactivity units were converted to % activity of an uninhibited control (100%), plotted against inhibitor concentration and inhibitor IC50 values obtained using the ‘Fit Curve’ Microsoft Excel extension or in-house equivalent.

Turning to `CCCc1nc(C)c2c(=O)[nH]c(-c3cc(S(=O)(=O)N4CCN(CC)CC4)ccc3OCC)nn12` [Comound A, 2-[2-ethoxy-5-(4-ethyl-piperazin-1-yl-1-sulphonyl)-phenyl]-5-methyl-7-propyl-3H-imidazo[5,1-f][1,2,4]triazin-4-one, reference compound], the “HLM t1/2” value in data set [1] was determined as 4 min.

The molecule `CCCCOc1ncc(C(C)=O)cc1-c1nn2c(CC)nc(C)c2c(=O)[nH]1` [Example 1, 2-(5-Acetyl-2-butoxy-3-pyridinyl)-7-ethyl-5-methylimidazo[5,1-f][1,2,4]triazin-4(3H)-one] gave a negative-log IC50 (pIC50) in data set [2] of 8.87. Also, the half-life at 1 μM in data set [1] (pH 7.4, read-out: HLM t1/2) is 21 min. `CCCCOc1ncc(C(C)=O)cc1-c1nn2c(CC)nc(CCC)c2c(=O)[nH]1` [Example 2, 2-(5-Acetyl-2-butoxy-3-pyridinyl)-7-ethyl-5-propylimidazo[5,1-f][1,2,4]triazin-4(3H)-one] gave a pIC50 in data set [2] of 8.71.

Source of the values: patent US6794387B2, “Pharmaceutically active compounds” (Pfizer Inc., priority 2001, dated 2004).
